Results: article PMC8945686, “Anticancer Effects with Molecular Docking Confirmation of Newly Synthesized Isatin Sulfonamide Molecular Hybrid Derivatives against Hepatic Cancer Cell Lines” (Biomedicines, 2022)
Several values for one entry are separate records, joined by “and”; a condition that tells them apart may be missing. Equal entries are not always repeated.

Experiments:
[1] = system: malonaldehyde (MDA); experiment: MDA level in HepG2 cell lysate (TBA method); format: cell-based, human; conditions: HepG2 treated at IC50, 48 h
Procedure: (§1) As previously described, with little modification, HepG2 cells were cultured in T25 flask until they reached 30% confluency. […] After treatment, cells were washed by PBS, trypsinized and centrifuged at 10,000 rpm. The formed pellets were washed twice with PBS and lysed in 1 mL ice-cold radio immunoprecipitation assay (RIPA) lysis buffer (50 mM Tris-HCl, pH 8.0, 150 mM NaCl, 1% Triton X-100, 0.5% sodium deoxycholate, 0.1% sodium dodecyl sulfate) and kept on ice for 20 min. Then, the mixture was centrifuged at 15,000 rpm for 15 min to remove any cell debris. The cell lysate was aliquoted and stored at −80 °C for determination of protein using Pierce BCA Protein Assay Kit (Thermo Fisher Scientific, Waltham/Boston, USA) according to manufacturer’s recommendations and determination of other biochemical parameters including EGFR, urokinase Plasminogen Activator (uPA), B-Cell Lymphoma-2 (Bcl-2), heparanase, and oxidative stress markers (glutathione; GSH and malonaldehyde; MDA).
Levels of MDA, the marker of lipid peroxidation, were measured by thiobarbituric acid (TBA) method. TBA reacts with MDA in an acidic medium at temperature of 95 °C for 30 min to form colored thiobarbituric acid reactive (TBAR) product, the absorbance of which was measured at 534 nm. The MDA kit was purchased from Biodiagnostics, Cairo, Egypt.

[2] = system: glutathione (GSH); experiment: GSH level in HepG2 cell lysate (DTNB method); format: cell-based, human; conditions: HepG2 treated at IC50, 48 h
Procedure: as §1
Glutathione levels were determined using GSH Biodiagnostics kit (Cairo, Egypt). The method is based on the reduction of 5,5′dithiobis (2-nitrobenzoic acid) (DTNB) with glutathione (GSH) to produce a yellow compound. The reduced chromogen is directly proportional to GSH concentration and its absorbance was measured at 405 nm.

[3] = system: HepG2 cells; experiment: Cell cycle analysis by flow cytometry (PI staining); format: cell-based, human
Procedure: In 6-well plate, HepG2 (1 × 10^5 cells per well) were treated with either (0.1% DMSO) vehicle or 5 μM of 3a, 4b, and 4c compounds. After 48 h incubation, cells were harvested and fixed for 12 h using ice-cold 70% ethanol at 4 °C. Ethanol was removed and cells were washed by PBS and incubated for 30 min at 37 °C in 0.5 mL of PBS containing 1 mg/mL RNase. Then, cells were stained for 30 min with PI in the dark and the DNA content was determined using flow cytometer.

[4] = system: mice; experiment: In vivo acute (14-day) oral toxicity study
Description: GPower 3.0.10 software was used to estimate the sample size needed for the experiment and the number of mice per group but, according to the Organization for Economic Cooperation and Development (OECD) Test Guidelines No. 407 (OECD, 2008 and updated 2017) and under the International Academy of Science’s Guide for the Care and Use of Laboratory Animals, as well as the ARRIVE guidelines, to use the least number of mice per group for the acute single dose oral toxicity test.
Animals were divided randomly into nine groups (5 animals per group). Before the experiment, the body weight (BW) of all mice was recorded. All mice were made to fast for 24 h and treated once (day zero) then carefully monitored for 14 days.
Normal control group: mice received saline orally once;
Negative control group: mice received vehicle (DMSO) orally once;
Positive control group: mice were injected with Dox (15 mg/kg BW, i.p.) once.
Isatin-sulfonamide-derivative-compound-treated groups (2a, 3a, 3d and 4b, 4c and 4d) of mice received 250 mg/kg BW of each orally once.
The animals’ BWs were recorded at the end of the 14 days of observation. Blood samples were collected from the retro-orbital plexus and allowed to clot. Sera were prepared by centrifugation at 4000 rpm for 15 min and then kept frozen at − 80 °C for liver and kidney function tests (LFTs and KFTs). Thereafter, mice were deprived of food overnight, euthanized, and sacrificed by cervical dislocation. Liver and kidney tissues were collected, washed with ice-cold saline, and weighed. Excised weighed livers and kidneys were fixed in a suitable buffer for histological examination.
Liver and kidney tissues were fixed in 10% neutral buffered formaldehyde overnight and then embedded in paraffin, […] in serial grades of alcohols, cleared in xylene, and were subjected to […], where 4 μm thick tissue sections were cut by rotatory microtome. Tissue sections were stained with hematoxylin and eosin (H and E) for histological examination using full HD light microscopic imaging system (Leica Microsystems GmbH, Wetzlar, Germany). Standard procedures for sample fixation and staining were done as previously described.

[5] = system: EGFR; experiment: EGFR level in HepG2 cell lysate (ELISA); format: cell-based, human; conditions: HepG2 treated at IC50, 48 h
Procedure: as §1
(§2) Levels of EGFR [37] and heparanase in cell lysate were investigated using commercially available enzyme-linked immunosorbent assay (ELISA) kits supplied by Abcam (Cat. No. ab269558, ab256401, respectively). Levels of uPA [39] were measured using ELISA kit supplied by Creative Diagnostics (New York, USA, Cat. No. DEIA1630). Bcl-2 levels were determined using ELISA kit supplied by Zymed Laboratories, Carlsbad, California (Cat. No. 99-0042). Briefly, standards and samples were added to corresponding 96-well plate coated with suitable antibody. After the washing step, biotinylated anti-human antibody was added to each well. After washing away unbound biotinylated antibody, horseradish peroxidase (HRP)-conjugated streptavidin was pipetted into each well. A peroxidase substrate solution was added to all wells, after washing, and the color developed was proportionate to the amount of EGFR bound. Finally, the stop solution was added and the color intensity was measured at 450 nm.

[6] = In vitro safety/cell viability MTT assay on normal RPE1 cells; format: cell-based, human; conditions: human, RPE1 cells (noncancerous), normal RPE1 cells, MTT
[7] = system: RPE1 cells; experiment: as above; format: cell-based, human; conditions: RPE1, MTT, in words
[8] = system: heparanase; experiment: Heparanase level in HepG2 cell lysate (ELISA); format: cell-based, human; conditions: HepG2 treated at IC50, 48 h
Procedure: as §1, §2

[9] = system: urokinase Plasminogen Activator (uPA); experiment: uPA level in HepG2 cell lysate (ELISA); format: cell-based, human; conditions: HepG2 treated at IC50, 48 h
Procedure: as §1, §2

[10] = system: B-Cell Lymphoma-2 (Bcl-2); experiment: Bcl-2 level in HepG2 cell lysate (ELISA); format: cell-based, human; conditions: HepG2 treated at IC50, 48 h
Procedure: as §1, §2

[11] = 14 days after single dose, compounds 250 mg/kg oral, doxorubicin 15 mg/kg I.P
[12] = 14 days, compounds 250 mg/kg oral, Dox 15 mg/kg i.p.

In the case of `Cc1ccc(C(=O)CC2(O)C(=O)Nc3ccc(S(=O)(=O)N4CCCCC4)cc32)cc1` (stereo not shown) [Compound 3a, 3-hydroxy-3-(2-oxo-2-(p-tolyl)ethyl)-5-(piperidin-1-ylsulfonyl)indolin-2-one], the “MDA level in cell lysate” value [1] is reported as 2.0 ± 0.5 µmol/mg protein and 2.0 ± 0.5 ^a*^,b* µmol/mg protein, the “GSH level in cell lysate” value [2] is reported as 1.6 ± 0.7 µmol/mg protein and the “%Cell Cycle Arrest/Phase %G0-G1” value ([3]; HepG2, 5 µM, 48 h) is reported as 31.57%. For the same compound, the “%Cell Cycle Arrest/Phase %G2-M” value ([3]; HepG2, 5 µM, 48 h) was 44.85%, the “%Cell Cycle Arrest/Phase %S” value ([3]; HepG2, 5 µM, 48 h) was 23.58% and the “%Cell Cycle Arrest/Phase %pre-G1” value ([3]; HepG2, 5 µM, 48 h) was 46.29%. The “G2-M arrest, fold higher compared to the negative control” value ([3]; HepG2, negative control 7.1%) was 6.32 fold, the S.ALT [4, 11] was 27.05 ± 0.81 ^^ U/L and the S.AST [4, 11] was 36.78 ± 0.33 ^^ U/L. For the same compound, the S.Creatinine [4, 11] was 0.82 ± 0.03 ^^ mg/dL, the S.D.Bilirubin [4, 11] was 0.16 ± 0.002 ^^ mg/dL and the S.T.Bilirubin [4, 11] was 0.65 ± 0.026 ^^ mg/dL. For the same compound, the S.Urea [4, 11] was 51.25 ± 0.36 ^^ mg/dL, the “Histopathology of liver and kidney tissues (H and E) versus control groups” value [4, 12] was “no differences in the hepatic or renal tissue structures” and the “Kidney histology (H and E photomicrographs)” value [4, 12] was “intact well-organized histological features of renal parenchyma”. For the same compound, the “Liver histology (H and E photomicrographs)” value [4, 12] was “no inflammatory cell infiltrates”, the “Survival over the treatment period (14 days)” value ([4]; single acute oral dose of 250 mg/kg) was “survived” and the “Physical or abnormal changes (body weight, skin, fur, eyes, behavior, overall appearance)” value ([4]; single acute oral dose of 250 mg/kg, 14 days) was “No physical or abnormal changes were observed”. The “EGFR level in cell lysate” value [5] was 42 ± 2.3 pmol/mg protein and 42 ± 2.3 ^a*^,b* pmol/mg protein, the CC50 at 48 h [6] was greater than 100 µM and the viability at 48 h, 100 p.p.m (μg/mL) ([6]; 100 p.p.m (μg/mL)) was 74%. For the same compound, the “Effect towards the noncancerous cell line (RPE1)” value [7] was “non-cytotoxic effect”, the “Heparanase level in cell lysate” value [8] was 1262 ± 35 pmol/mg protein and 1262 ± 35 ^a*^,b* pmol/mg protein and the “uPA level in cell lysate” value [9] was 1258 ± 15 nmol/mg protein and 1258 ± 15 ^a* nmol/mg protein. For the same compound, the “Bcl-2 level in cell lysate” value [10] was 4.2 ± 0.1 nmol/mg protein and 4.2 ± 0.10 ^a*^,b* nmol/mg protein.
